Columns and labels:
[1] = tested on: SMN protein in SMA patient fibroblast cells (GM03813); assay: SMN protein assay in cultured cells (SMN HTRF); type: cell-based; settings: Homo sapiens, SMA Type 1 patient fibroblasts, 48 hours; for EC (1.5-fold): 7-point concentration curve, 1.5 times SMN protein vs vehicle, read-out: EC1.5x SMN protein (EC1.5x concentration for SMN protein expression); for maximal fold induction: fold increase relative to vehicle control, read-out: max. fold increase of SMN protein
Text: The term “EC1.5x concentration for SMN protein expression” (or “EC1.5x SMN protein”) is defined as that concentration of test compound that is effective in producing 1.5 times the amount of SMN protein in an SMA patient fibroblast cell compared to the amount produced from the vehicle control.
The SMN HTRF (homogeneous time resolved fluorescence) assay is used to quantify the level of SMN protein in SMA patient fibroblast cells treated with test compounds. Materials used and respective sources are listed below in Table 4.
Cells are thawed and cultured in DMEM-10% FBS for 72 hours. Cells are trypsinized, counted and re-suspended to a concentration of 25,000 cells/mL in DMEM-10% FBS. The cell suspensions are plated at 5,000 cells per well in a 96 well microtiter plate and incubated for 3 to […]. Test compounds are serially diluted 3.16-fold in 100% DMSO to generate a 7-point concentration curve. 1 μL of test compound solution is transferred to cell-containing wells and cells are incubated for 48 hours in a cell culture incubator (37° C., 5% CO2, […]). Triplicate samples are set up for each test compound concentration. After 48 hours, the supernatant is removed from the wells and 25 μL of the RIPA lysis buffer, containing protease inhibitors, is added to the wells and incubated with shaking at room temperature for 1 hour. 25 μL of the diluent is added and then 35 μL of the resulting lysate is transferred to a 384-well plate, where each well contains 5 μL of the antibody solution (1:100 dilution of anti-SMN d2 and anti-SMN kryptate in SMN reconstitution buffer). The plate is centrifuged for 1 minute to bring the solution to the bottom of the wells, then incubated overnight at room temperature. Fluorescence for each well of the plate at 665 nm and 620 nm is measured on an EnVision multilabel plate reader (Perkin-Elmer).
The normalized fluorescence signal is calculated for each sample, Blank and vehicle control well by dividing the signal at 665 nm by the signal at 620 nm. Normalizing the signal accounts for possible fluorescence quenching due to the matrix effect of the lysate. The ΔF value (a measurement of SMN protein abundance as a percent value) for each sample well is calculated by subtracting the normalized average fluorescence for the Blank control wells from the normalized fluorescence for each sample well, then dividing this difference by the normalized average fluorescence for the Blank control wells and multiplying the resulting value by 100. The ΔF value for each sample well represents the SMN protein abundance from test compound-treated samples. The ΔF value for each sample well is divided by the ΔF value for the vehicle control wells to calculate the fold increase in SMN protein abundance relative to the vehicle control. Table 5 provides EC1.5x concentrations for SMN protein expression that was obtained from the 7-point concentration data generated according to the above procedure for particular compounds of the present invention.
Table 6 provides the maximum fold increase of SMN protein that was obtained from the 7-point concentration data generated according to the above procedure for particular compounds of the present invention

[2] = tested on: full length SMN2 minigene mRNA (HEK293H cells stably transfected with SMN2-A minigene); assay: SMN2 minigene mRNA splicing RT-qPCR assay in cultured cells; type: cell-based; settings: Homo sapiens, HEK293-H, 24 hours, 7-point concentration curve, 1.5-fold increase relative to vehicle, read-out: EC1.5x minigene (EC1.5x concentration for production of full length SMN2 minigene mRNA)
Text: The term “EC1.5x concentration for production of full length SMN2 minigene mRNA” (or “EC1.5x minigene”) is defined as that concentration of test compound that 1 s effective m increasing the amount of full length SMN2 minigene mRNA to a level 1.5-fold greater relative to that in vehicle-treated cells.
The reverse transcription-quantitative PCR-based (RT-qPCR) assay is used to quantify the level of the full length SMN2 minigene (referred to herein by the term “FL SMN2mini”) mRNA containing SMN2 exon 7 in a HEK293H cell line stably transfected with said minigene and treated with a test compound. Materials used and respective sources are listed below in Table 1.
The SMN2-A minigene construct was prepared as described in International Patent Application WO2009/151546A1 page 145 paragraph [00400] to page 147 paragraph [00412](incl. FIG. 1 and FIG. 3 therein).
HEK293H cells stably transfected with the SMN2-A minigene construct (10,000 cells/well) are seeded in 200 μL of cell culture medium (DMEM plus 10% FBS, with 200 μg/mL hygromycin) in 96-well flat-bottom plates and the plate is immediately swirled to ensure proper dispersal of cells and the formation of an even monolayer of cells. Cells are allowed to attach for 6 hours. Test compounds are serially diluted 3.16-fold in 100% DMSO to generate a 7-point concentration curve. A solution of test compound (1 μL, 200× in DMSO) is added to each cell-containing well and the plate is incubated for 24 hours in a cell culture incubator (37° C., 5% CO2, 100% relative humidity). 2 replicates are prepared for each test compound concentration. The cells are then lysed in the Cells-To-Ct lysis buffer and the lysate is stored at −80° C.
Full length SMN2-A minigene and GAPDH mRNA are quantified using the primers and probes referenced in Table 2. Primer SMN Forward A (SEQ ID NO.1) hybridizes to a nucleotide sequence in exon 7 (nucleotide 22 to nucleotide 40), primer SMN Reverse A (SEQ ID NO.2) hybridizes to a nucleotide sequence in the coding sequence of Firefly luciferase, SMN Probe A (SEQ ID NO.3) hybridizes to a nucleotide sequence in exon 7 (nucleotide 50 to nucleotide 54) and exon 8 (nucleotide 1 to nucleotide 21). The combination of these three oligonucleotides detects only SMN1 or SMN2 minigenes (RT-qPCR) and will not detect endogenous SMN1 or SMN2 genes.
The SMN forward and reverse primers are used at final concentrations of 0.4 μM. The SMN probe is used at a final concentration of 0.15 μM. The GAPDH primers are used at final concentrations of 0.2 μM and the probe at 0.15 μM.
The SMN2-minigene GAPDH mix (15 μL total volume) is prepared by combining 7.5 μL of 2×RT-PCR buffer, 0.4 μL of 25×RT-PCR enzyme mix, 0.75 μL of 20×GAPDH primer-probe mix, 4.0075 μL of water, 2 μL of 10-fold diluted cell lysate, 0.06 μL of 100 µM SMN forward primer, 0.06 μL of 100 μM SMN reverse primer, and 0.225 μL of 100 μM SMN probe.
PCR is carried out at the following temperatures for the indicated time: Step 1: 48° C. (15 min); Step 2: 95° C. (10 min); Step 3: 95° C. (15 sec); Step 4: 60° C. (1 min); then repeat Steps 3 and 4 for a total of 40 cycles.
Each reaction mixture contains both SMN2-A minigene and GAPDH primers/probe sets (multiplex design), allowing simultaneous measurement of the levels of two transcripts.
The increase in the abundance of the FL SMN2mini mRNA relative to that in cells treated with vehicle control is determined from real-time PCR data using a modified ΔΔCt method (as described in Livak and Schmittgen, Methods, 2001, 25:402-8). The amplification efficiency E is calculated from the slope of the amplification curve for FL SMN2mini and GAPDH individually. The abundance of FL SMN2mini and GAPDH mRNA are then calculated as (1+E)^−Ct, where Ct is the threshold value for each amplicon. The abundance of FL SMN2mini mRNA is normalized to GAPDH mRNA abundance. […]

SMILES | EC (1.5-fold) [1] [µM] | maximal fold induction [1] | EC (1.5-fold) [2] [µM]
Cc1cn2nc(-c3cc(=O)n4cc(N5CCN[C@@H](C)C5)ccc4n3)ccc2n1 [Example 11, 2-(2-methylimidazo[1,2-b]pyridazin-6-yl)-7-[(3S)-3-methylpiperazin-1-yl]pyrido[1,2-a]pyrimidin-4-one] | 0.007 | 1.9 | 0.0014
Cc1cn2nc(-c3cc(=O)n4cc(N5CCN[C@H](C)C5)ccc4n3)ccc2n1 [Example 12, 2-(2-methylimidazo[1,2-b]pyridazin-6-yl)-7-[(3R)-3-methylpiperazin-1-yl]pyrido[1,2-a]pyrimidin-4-one] | 0.0075 | 1.77 | 0.0012
Cc1cn2nc(-c3cc(=O)n4cc(N5CCCNCC5)ccc4n3)ccc2n1 [Example 13, 7-(1,4-diazepan-1-yl)-2-(2-methylimidazo[1,2-b]pyridazin-6-yl)pyrido[1,2-a]pyrimidin-4-one] | 0.003 | 1.91 | 0.005
Cc1cn2nc(-c3cc(=O)n4cc(N5C[C@@H](C)N[C@@H](C)C5)ccc4n3)ccc2n1 [Example 14, 7-[(3R,5S)-3,5-dimethylpiperazin-1-yl]-2-(2-methylimidazo[1,2-b]pyridazin-6-yl)pyrido[1,2-a]pyrimidin-4-one] | 0.0176 | 1.86 | 0.0041
Cc1cn2nc(-c3cc(=O)n4cc(N5CCN6CCC[C@H]6C5)ccc4n3)ccc2n1 [Example 15, 7-[(8aS)-3,4,6,7,8,8a-hexahydro-1H-pyrrolo[1,2-a]pyrazin-2-yl]-2-(2-methylimidazo[1,2-b]pyridazin-6-yl)pyrido[1,2-a]pyrimidin-4-one] | 0.0212 | 1.94 | 0.004
Cc1cn2nc(-c3cc(=O)n4cc(N5CCN6CCC[C@@]6(C)C5)ccc4n3)ccc2n1 [Example 16, 7-[(8aS)-8a-methyl-1,3,4,6,7,8-hexahydropyrrolo[1,2-a]pyrazin-2-yl]-2-(2-methylimidazo[1,2-b]pyridazin-6-yl)pyrido[1,2-a]pyrimidin-4-one] | 0.003 | 1.83 | 0.0011
Cc1cn2nc(-c3cc(=O)n4cc(N5CCN6CCC[C@]6(C)C5)ccc4n3)ccc2n1 [Example 17, 7-[(8aR)-8a-methyl-1,3,4,6,7,8-hexahydropyrrolo[1,2-a]pyrazin-2-yl]-2-(2-methylimidazo[1,2-b]pyridazin-6-yl)pyrido[1,2-a]pyrimidin-4-one] | 0.0202 | 1.98 | 0.0064
Cc1cn2nc(-c3cc(=O)n4cc(N5CC[C@@H](N6CCCC6)C5)ccc4n3)cc(C)c2n1 [Example 18, 2-(2,8-dimethylimidazo[1,2-b]pyridazin-6-yl)-7-[(3R)-3-pyrrolidin-1-ylpyrrolidin-1-yl]pyrido[1,2-a]pyrimidin-4-one] | 0.025 | 1.75 | 0.0036
Cc1cn2nc(-c3cc(=O)n4cc(N5CCNC6(CC6)C5)ccc4n3)cc(C)c2n1 [Example 20, 7-(4,7-diazaspiro[2.5]octan-7-yl)-2-(2,8-dimethylimidazo[1,2-b]pyridazin-6-yl)pyrido[1,2-a]pyrimidin-4-one] | 0.037 | 1.72 | 0.0043
Cc1cn2nc(-c3cc(=O)n4cc(N5CC[C@@H](N6CCCC6)C5)ccc4n3)ccc2n1 [Example 21, 2-(2-methylimidazo[1,2-b]pyridazin-6-yl)-7-[(3R)-3-pyrrolidin-1-ylpyrrolidin-1-yl]pyrido[1,2-a]pyrimidin-4-one] | 0.0687 | 1.54 | 0.0096
Cc1cn2nc(-c3cc(=O)n4cc(N5CCNC(C)(C)C5)ccc4n3)cc(C)c2n1 [Example 22, 2-(2,8-dimethylimidazo[1,2-b]pyridazin-6-yl)-7-(3,3-dimethylpiperazin-1-yl)pyrido[1,2-a]pyrimidin-4-one] | 0.0138 | 1.69 | 0.0009
Cc1cn2nc(-c3cc(=O)n4cc(N5CCNC(C)(C)C5)ccc4n3)ccc2n1 [Example 23, 7-(3,3-dimethylpiperazin-1-yl)-2-(2-methylimidazo[1,2-b]pyridazin-6-yl)pyrido[1,2-a]pyrimidin-4-one] | 0.0239 | 1.63 | 0.0034
Cc1cn2nc(-c3cc(=O)n4cc(N5CCN[C@@H](C)C5)cc(C)c4n3)cc(C)c2n1 [Example 24, 2-(2,8-dimethylimidazo[1,2-b]pyridazin-6-yl)-9-methyl-7-[(3S)-3-methylpiperazin-1-yl]pyrido[1,2-a]pyrimidin-4-one] | 0.0047 | 1.77 | 0.0004
Cc1cn2nc(-c3cc(=O)n4cc(N5CCN[C@H](C)C5)cc(C)c4n3)cc(C)c2n1 [Example 25, 2-(2,8-dimethylimidazo[1,2-b]pyridazin-6-yl)-9-methyl-7-[(3R)-3-methylpiperazin-1-yl]pyrido[1,2-a]pyrimidin-4-one] | 0.0119 | 1.79 | 0.0005

From patent US11827646B2, “Compounds for treating spinal muscular atrophy” (Hoffmann-La Roche Inc., priority 2014, dated 2023)
